Where “and” joins values, the source holds several entries; their conditions need not be identical. Equal entries are not always repeated. Where two headings read alike, the source gives them in different places. Numbered stars: 1 amine (or outer) side, 2 acyl side, 3 side chain; on linkers, the order of the positions; unused ones are H or OH. Bridge positions count the residues as written; N and C are the ends. Square brackets hold non-standard residues; d marks the D form. Peptide text beside a SMILES is read from it. * marks the point of attachment. Orn(4R-OH,5R-OH) = O=C([C@H](C[C@@H](O)[C@@H](O)N[*:3])N[*:1])[*:2]; hTyr(3S-OH,4S-OH) = N[C@H](C(=O)O)[C@H](O)[C@@H](O)c1ccc(O)cc1; Pro(3S-OH,4S-Me) = C[C@H]1CN[C@H](C(=O)O)[C@H]1O; Palmitoleoyl = CCCCCC/C=C\CCCCCCCC(=O)*; Heptadecanoyl = CCCCCCCCCCCCCCCCC(=O)*; Oleoyl = CCCCCCCC/C=C\CCCCCCCC(=O)*; X4 = CCCCCCCC/C=C\CCCCCCCCCC(=O)*; Hyp = O=C(O)[C@@H]1C[C@@H](O)CN1; X3 = CCCCCCCC/C=C/CCCCCCCC(=O)*; X6 = CCCCCC/C=C\CCCCCCCCCC(=O)*; X5 = CCCCCC/C=C/CCCCCCCC(=O)*; Lauroyl = CCCCCCCCCCCC(=O)*
Columns and labels:
[1] = Blood levels after oral administration in mice (bioassay vs. Aspergillus montevidensis A35137); details: mouse, in vivo; for Blood Levels After Oral Administration In Mice: 240 min; for concentration at 4 h: po, 416 mg/kg
Description: determined by bioassay vs. Aspergillus montevidensis A35137.

[2] = tested on: Saccharomyces pastoranius X-52; test: Agar plate disc diffusion test (zone of inhibition); type: cell-based, Saccharomyces pastorianus; details: X52, suspension in methanol 1 mg/ml, 7mm disc, 24-48 hours at 25-37° C., read-out: Size of zone of inhibition, Saccharomyces pastoranius X-52
Description: (§1) Tables II and III give the results of the testing in vitro of the compounds of Examples 1-16 by agar-plate disc-diffusion methods. In Table II activity is measured by the size (diameter in mm.) of the observed zone of inhibition of the microorganism produced by the test compound. In Table III, activity is measured by the minimal inhibitory concentration (MIC) of the substance (μg/dic) required to inhibit growth of the test organism. Table IV gives the results of the testing in vitro of the n-tridecanoyl derivative of A30912A nucleus (Formula III, R is n-C12 H25) against five strains of Candida albicans by the agar dilution method. In […] activity is measured by the minimal inhibitory concentration (MIC) of the substance (μg/ml) required to inhibit the test organism.
(§2) ^(a) Compounds were tested as suspension in methanol at a
(§3) concentration of 1 mg/ml. by dipping a 7mm disc into the suspension and
(§4) placing it on the agar surface. Incubation: 24-48 hours at 25-37°

[3] = tested on: Candida albicans A-26; test: Agar plate disc diffusion test (MIC); type: cell-based; details: 0.01M sodium borate pH 7.5; 20 μg/disc top, twofold dilutions; 24 hours, 30° C.
Description: as §1
(§5) *Compounds were suspended in 0.01M sodium borate solution, pH 7.5. The
(§6) compounds were tested at 20 μg/disc at top level and at twofold
(§7) dilutions until end points were reached. Incubation: 24 hours; 30°

[4] = tested on: Trichophyton mentagrophytes #6; test: Agar plate disc diffusion test (MIC); type: cell-based; details: 0.01M sodium borate pH 7.5; 20 μg/disc top, twofold dilutions; 24 hours, 30° C.
Description: as §1, §5, §6, §7

[5] = tested on: Candida albicans A-26; test: Agar plate disc diffusion test (zone of inhibition); type: cell-based; details: suspension in methanol 1 mg/ml, 7mm disc; 24-48 hours at 25-37° C.
Description: as §1, §2, §3, §4

[6] = tested on: Neurospora crassa 846; test: as above; type: cell-based; details: Neurospora crassa, 846, suspension in methanol 1 mg/ml, 7mm disc
Description: as §1, §2, §3, §4

[7] = tested on: Candida albicans A-26; test: In vivo activity against Candida albicans A-26 infection in mice; parameters: species or system mice infected with Candida albicans A-26; details: mice, subcutaneous; for ED50 / minimal effective dose: Candida albicans, A26, sc, 24 h; for ED50: increase in survival time, read-out: ED50; for minimal effective dose: read-out: Lowest Active Dose
Description: The results of in vivo tests to evaluate the effectiveness of the compound of Examples 1-16 against an infection caused by Candida albicans A-26 in mice are given in Table V, where activity is measured by the ED50 value (the dose in mg/kg. required to cure 50% of the test animals). Where an ED50 value was not obtained, activity is indicated by the lowest dose at which a significant anti-fungal effect is observed. In this test, groups of male albino mice (specific pathogen free), weighing 18 to 20 grams, are infected intravenously with Candida albicans A-26. The animals are X-irradiated 24 hours prior to infection at about 50 roentgens per minute for 8 minutes (400 total dose) to reduce immune responses to the infecting organism. At 0, 4, and 24 hours post infection each group of mice is given graded doses subcutaneously of the test compound as a suspension in 33% polyethylene glycol-water. The day of death for each animal is recorded.
mg/kg. Dosages given 0, 4, and 24 hours post injection as suspension of
test compound in 30% PEG--H2 O. Number of mice receiving test
compounds at each dosage level; 6 mice per group. Number of mice in
control (untreated) group: 10 mice per group.
**As measured by increase in survival time of treated animals versus
control, calculated by method of Reed v Mueuch, American J. Hygiene, 27,

[8] = tested on: Trichophyton mentagraphytes A-23; test: Agar plate disc diffusion test (zone of inhibition); type: cell-based, Trichophyton mentagrophytes; details: A23, suspension in methanol 1 mg/ml, 7mm disc
Description: as §1, §2, §3, §4

[9] = 24-48 hours at 25-37° C., read-out: Size of zone of inhibition, Neurospora crassa 846
[10] = schedule B (80, 40, 20, 10 mg/kg), 0, 4, 24 hours
[11] = *distinct measurable zone of inhibition with regrowth of organism around disc, read-out: Size of zone of inhibition, Trichophyton mentagraphytes A-23 (*)
[12] = schedule A (40, 20, 15, and 10 mg/kg), 0, 4, 24 hours

Structure (SMILES) | Blood Levels After Oral Administration In Mice [1] [µg/mL] | MIC, Candida albicans A-26 [3] | MIC, Trichophyton mentagrophytes #6 [4] [μg/disc] | concentration at 4 h [1] [µg/mL] | zone of inhibition at 1000 µg/mL [2] [mm] | Size of zone of inhibition, Candida albicans A-26 [5] [mm] | zone of inhibition at 1000 µg/mL [6, 9] [mm] | ED50 [7, 10] [mg/kg] | minimal effective dose [7, 10] [mg/kg] | zone of inhibition at 1000 µg/mL ([6]; *distinct measurable zone of inhibition with regrowth of organism around disc, read-out: Size of zone of inhibition, Neurospora crassa 846 (*)) [mm] | zone of inhibition at 1000 µg/mL [8, 11] [mm] | ED50 [7, 12] [mg/kg] | minimal effective dose [7, 12] [mg/kg] | zone of inhibition at 1000 µg/mL ([8]; 24-48 hours at 25-37° C., read-out: Size of zone of inhibition, Trichophyton mentagraphytes A-23) [mm] | Lowest Active Dose [7, 12] [mg/kg]
CCCCCCCCCCCC(=O)N[C@H]1C[C@@H](O)[C@@H](O)NC(=O)[C@@H]2[C@@H](O)[C@@H](C)CN2C(=O)[C@H]([C@@H](C)O)NC(=O)[C@H]([C@H](O)[C@@H](O)c2ccc(O)cc2)NC(=O)[C@@H]2C[C@@H](O)CN2C(=O)[C@H]([C@@H](C)O)NC1=O [Example 1] (Lauroyl-[Orn(4R-OH,5R-OH)]T[Hyp][hTyr(3S-OH,4S-OH)]T[Pro(3S-OH,4S-Me)]; lactam 1-C) | 0 | 1.25 μg/disc | 0.078 |  | 16 | 25 | 40 | 62 | 20 |  |  |  |  |  | 
CCCCCC/C=C/CCCCCCCC(=O)N[C@H]1C[C@@H](O)[C@@H](O)NC(=O)[C@@H]2[C@@H](O)[C@@H](C)CN2C(=O)[C@H]([C@@H](C)O)NC(=O)[C@H]([C@H](O)[C@@H](O)c2ccc(O)cc2)NC(=O)[C@@H]2C[C@@H](O)CN2C(=O)[C@H]([C@@H](C)O)NC1=O [Example 3] (X5-[Orn(4R-OH,5R-OH)]T[Hyp][hTyr(3S-OH,4S-OH)]T[Pro(3S-OH,4S-Me)]; lactam 1-C) |  |  |  |  | 19 | 24 |  |  |  | 40 | 50 | 40 | 20 |  | 
CCCCCC/C=C\CCCCCCCC(=O)N[C@H]1C[C@@H](O)[C@@H](O)NC(=O)[C@@H]2[C@@H](O)[C@@H](C)CN2C(=O)[C@H]([C@@H](C)O)NC(=O)[C@H]([C@H](O)[C@@H](O)c2ccc(O)cc2)NC(=O)[C@@H]2C[C@@H](O)CN2C(=O)[C@H]([C@@H](C)O)NC1=O [Example 4] (Palmitoleoyl-[Orn(4R-OH,5R-OH)]T[Hyp][hTyr(3S-OH,4S-OH)]T[Pro(3S-OH,4S-Me)]; lactam 1-C) |  |  | < 0.039 | 0.19 |  |  |  |  |  |  |  | > 40 | 20 |  | 
CCCCCCCCCCCCCCCCC(=O)N[C@H]1C[C@@H](O)[C@@H](O)NC(=O)[C@@H]2[C@@H](O)[C@@H](C)CN2C(=O)[C@H]([C@@H](C)O)NC(=O)[C@H]([C@H](O)[C@@H](O)c2ccc(O)cc2)NC(=O)[C@@H]2C[C@@H](O)CN2C(=O)[C@H]([C@@H](C)O)NC1=O [Example 5] (Heptadecanoyl-[Orn(4R-OH,5R-OH)]T[Hyp][hTyr(3S-OH,4S-OH)]T[Pro(3S-OH,4S-Me)]; lactam 1-C) |  | 0.625 μg/disc | 0.039 | 97 | 30 | 18 | 21 |  |  |  | 40 | 9 | ≥ 5 |  | 

Further lines, with some results ahead:

Blood Levels After Oral Administration In Mice [1] [µg/mL] | MIC, Candida albicans A-26 [3] | MIC, Trichophyton mentagrophytes #6 [4] [μg/disc] | concentration at 4 h [1] [µg/mL] | Structure (SMILES) | zone of inhibition at 1000 µg/mL [2] [mm] | Size of zone of inhibition, Candida albicans A-26 [5] [mm] | zone of inhibition at 1000 µg/mL [6, 9] [mm] | ED50 [7, 10] [mg/kg] | minimal effective dose [7, 10] [mg/kg] | zone of inhibition at 1000 µg/mL ([6]; *distinct measurable zone of inhibition with regrowth of organism around disc, read-out: Size of zone of inhibition, Neurospora crassa 846 (*)) [mm] | zone of inhibition at 1000 µg/mL [8, 11] [mm] | ED50 [7, 12] [mg/kg] | minimal effective dose [7, 12] [mg/kg] | zone of inhibition at 1000 µg/mL ([8]; 24-48 hours at 25-37° C., read-out: Size of zone of inhibition, Trichophyton mentagraphytes A-23) [mm] | Lowest Active Dose [7, 12] [mg/kg]
0 | 0.625 μg/disc |  |  | CCCCCCCC/C=C\CCCCCCCC(=O)N[C@H]1C[C@@H](O)[C@@H](O)NC(=O)[C@@H]2[C@@H](O)[C@@H](C)CN2C(=O)[C@H]([C@@H](C)O)NC(=O)[C@H]([C@H](O)[C@@H](O)c2ccc(O)cc2)NC(=O)[C@@H]2C[C@@H](O)CN2C(=O)[C@H]([C@@H](C)O)NC1=O [Example 7] (Oleoyl-[Orn(4R-OH,5R-OH)]T[Hyp][hTyr(3S-OH,4S-OH)]T[Pro(3S-OH,4S-Me)]; lactam 1-C) | 19 | 23 | 18 |  |  |  |  |  | 10 | 1 | 20
 | 0.156 μg/disc | < 0.039 | 65 | CCCCCCCC/C=C/CCCCCCCC(=O)N[C@H]1C[C@@H](O)[C@@H](O)NC(=O)[C@@H]2[C@@H](O)[C@@H](C)CN2C(=O)[C@H]([C@@H](C)O)NC(=O)[C@H]([C@H](O)[C@@H](O)c2ccc(O)cc2)NC(=O)[C@@H]2C[C@@H](O)CN2C(=O)[C@H]([C@@H](C)O)NC1=O [Example 8] (X3-[Orn(4R-OH,5R-OH)]T[Hyp][hTyr(3S-OH,4S-OH)]T[Pro(3S-OH,4S-Me)]; lactam 1-C) | 18 | 21 | 32 |  |  |  | 31 | 11 | 10 |  | 
 | 0.312 μg/disc | < 0.039 | 4.2 | CCCCCC/C=C\CCCCCCCCCC(=O)N[C@H]1C[C@@H](O)[C@@H](O)NC(=O)[C@@H]2[C@@H](O)[C@@H](C)CN2C(=O)[C@H]([C@@H](C)O)NC(=O)[C@H]([C@H](O)[C@@H](O)c2ccc(O)cc2)NC(=O)[C@@H]2C[C@@H](O)CN2C(=O)[C@H]([C@@H](C)O)NC1=O [Example 9] (X6-[Orn(4R-OH,5R-OH)]T[Hyp][hTyr(3S-OH,4S-OH)]T[Pro(3S-OH,4S-Me)]; lactam 1-C) |  |  |  |  |  |  |  | > 40 | 40 |  | 
 | 1.25 μg/disc and 2.5 μg/disc |  |  | CCCCCCCC/C=C\CCCCCCCCCC(=O)N[C@H]1C[C@@H](O)[C@@H](O)NC(=O)[C@@H]2[C@@H](O)[C@@H](C)CN2C(=O)[C@H]([C@@H](C)O)NC(=O)[C@H]([C@H](O)[C@@H](O)c2ccc(O)cc2)NC(=O)[C@@H]2C[C@@H](O)CN2C(=O)[C@H]([C@@H](C)O)NC1=O [Example 14] (X4-[Orn(4R-OH,5R-OH)]T[Hyp][hTyr(3S-OH,4S-OH)]T[Pro(3S-OH,4S-Me)]; lactam 1-C) | 18 | 22 | 18 |  |  |  | 23 |  | 10 |  | 
